System: SEM cells
Experiment: cell viability relative to DMSO control; higher = less cytotoxic
Conditions: 48 h
Outline: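 Viability was expressed as a per-plate percentage of DMSO wells, with cell-free wells as background. Leukemia cells (NOMO1 or SEM at 500 cells/well, P12-Ichikawa at 1000 cells/well) were adapted for at least four passages in each medium and seeded in 1536-well plates (5 μl). Library compounds in DMSO were pin-dosed over an 11-point threefold series from 47 μM to 0.79 nM, and CellTiter-Glo One luminescence was read after 48 h at 37°C.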

[1] = HPLM + 10% dialyzed FBS, 0.000781 µM
[2] = HPLM + 10% dialyzed FBS, 0.00234 µM
[3] = HPLM + 10% dialyzed FBS, 0.00702 µM
[4] = HPLM + 10% dialyzed FBS, 0.0211 µM
[5] = HPLM + 10% dialyzed FBS, 0.0632 µM
[6] = HPLM + 10% dialyzed FBS, 0.19 µM
[7] = HPLM + 10% dialyzed FBS, 0.569 µM
[8] = HPLM + 10% dialyzed FBS, 1.71 µM
[9] = HPLM + 10% dialyzed FBS, 5.12 µM
[10] = HPLM + 10% dialyzed FBS, 15.4 µM
[11] = HPLM + 10% dialyzed FBS, 46.1 µM
[12] = RPMI 5 mM glucose + 10% FBS, 0.000781 µM
[13] = RPMI 5 mM glucose + 10% FBS, 0.00234 µM
[14] = RPMI 5 mM glucose + 10% FBS, 0.00702 µM
[15] = RPMI 5 mM glucose + 10% FBS, 0.0211 µM
[16] = RPMI 5 mM glucose + 10% FBS, 0.0632 µM
[17] = RPMI 5 mM glucose + 10% FBS, 0.19 µM
[18] = RPMI 5 mM glucose + 10% FBS, 0.569 µM
[19] = RPMI 5 mM glucose + 10% FBS, 1.71 µM
[20] = RPMI 5 mM glucose + 10% FBS, 5.12 µM
[21] = RPMI 5 mM glucose + 10% FBS, 15.4 µM
[22] = RPMI 5 mM glucose + 10% FBS, 46.1 µM
[23] = RPMI 5 mM glucose + 10% dialyzed FBS, 0.000781 µM
[24] = RPMI 5 mM glucose + 10% dialyzed FBS, 0.00234 µM
[25] = RPMI 5 mM glucose + 10% dialyzed FBS, 0.00702 µM
[26] = RPMI 5 mM glucose + 10% dialyzed FBS, 0.0211 µM
[27] = RPMI 5 mM glucose + 10% dialyzed FBS, 0.0632 µM
[28] = RPMI 5 mM glucose + 10% dialyzed FBS, 0.19 µM
[29] = RPMI 5 mM glucose + 10% dialyzed FBS, 0.569 µM
[30] = RPMI 5 mM glucose + 10% dialyzed FBS, 1.71 µM
[31] = RPMI 5 mM glucose + 10% dialyzed FBS, 5.12 µM
[32] = RPMI 5 mM glucose + 10% dialyzed FBS, 15.4 µM
[33] = RPMI 5 mM glucose + 10% dialyzed FBS, 46.1 µM

Compound	cell viability [1] [%]	cell viability [2] [%]	cell viability [3] [%]	cell viability [4] [%]	cell viability [5] [%]	cell viability [6] [%]	cell viability [7] [%]	cell viability [8] [%]	cell viability [9] [%]	cell viability [10] [%]	cell viability [11] [%]	cell viability [12] [%]	cell viability [13] [%]	cell viability [14] [%]	cell viability [15] [%]	cell viability [16] [%]	cell viability [17] [%]	cell viability [18] [%]	cell viability [19] [%]	cell viability [20] [%]	cell viability [21] [%]	cell viability [22] [%]	cell viability [23] [%]	cell viability [24] [%]	cell viability [25] [%]	cell viability [26] [%]	cell viability [27] [%]	cell viability [28] [%]	cell viability [29] [%]	cell viability [30] [%]	cell viability [31] [%]	cell viability [32] [%]	cell viability [33] [%]
Cn1cc(-c2cnn3c(N)c(Br)c([C@@H]4CCCNC4)nc23)cn1	75.1	93.2	94.8	86.4	93.6	93.6	71.3	29.1	19.4	16.7	8.44	87.4	99.9	101	94.4	91.8	93.6	96.6	63	22.4	16.3	7.88	76.8	90.9	84.6	88.9	83.6	94.2	69.5	31.3	13.2	12.8	7.35
CCCCOc1ccc(CC(=O)NO)cc1	107	115	105	125	101	102	109	91.3	101	76.4	51.8	116	99.5	109	116	97	113	114	104	109	108	46.5	107	122	108	116	98.7	115	109	113	107	102	39.9
O=[S+]([O-])(O)c1ccc2cc(/N=N/c3cc([S+](=O)([O-])O)c4cccnc4c3O)ccc2c1	115	120	120	28.8	133	132	126	117	120	119	39.9	115	124	113	17.8	115	114	121	112	103	105	25.5	–	–	–	–	–	–	–	–	–	–	–
O=C(O)c1ccc(-c2c[nH]c3ncc(-c4ccccc4)cc23)cc1C1CCCC1	98	103	113	113	118	125	99	108	82.4	63.5	66.6	111	110	111	109	121	113	101	91.8	69.8	47.1	43.2	114	116	119	138	114	115	123	101	65.3	44.1	35.3
CN1CC/C(CC1)=C3\c4ccccc4CC(=O)c2sccc23	107	110	127	121	119	122	127	133	142	123	110	115	124	123	114	127	125	126	116	145	129	103	117	114	126	104	119	129	135	108	128	106	113
CN1/C=C(\N=C(NC2=CC=C(C=C2)C(=O)N3CCOCC3)/C1=O)/C4=C(C)C(=CC=C4)NC(=O)C5=CC=C(C=C5)C(C)(C)C	111	97.2	105	48.6	106	116	97.5	110	106	89.5	92.2	110	102	106	46.8	101	86.6	110	92.8	104	83.3	66	106	108	105	50.7	120	107	100	111	92.2	98.5	68.6
CCOc1cc(/C=C2/C(=O)N(c3ccccc3)N=C2C)cc(Cl)c1OCC(=O)OC	69.2	85.9	84	82.7	81	90	85.9	89.5	75.7	83.6	48.4	86.2	95.7	85.2	91.1	82	107	95.6	95.8	90.9	71.9	58.6	80	74.3	95	90	64.4	90.6	81.5	86.3	85.8	65.9	59
C[C@H](NC(=O)Cc1cc(F)cc(F)c1)C(=O)N[C@@H]1C(=O)N(C)c2ccccc2-c2ccccc21	84.8	106	103	77.7	102	102	110	106	35.4	3.3	2.09	94.2	101	88.5	80.6	107	103	98.1	16	4.52	3.08	1.53	107	103	100	79.4	112	109	113	105	5.44	3.49	2.01
